The source of these data is US20230012570A1, “BICYCLIC COMPOUND USED AS SELECTIVE ANDROGEN RECEPTOR MODULATOR” (MEDSHINE DISCOVERY INC., priority 2019, published 2023).

Data set [1] is described as follows: Pharmacokinetic test in male SD rats, intravenous and intragastric administration, plasma LC-MS/MS. The data set is classed as in vivo. To be noted: rat; for Vd: read-out: Apparent volume of distribution Vdss; for clearance: read-out: Clearance rate Cl; for AUC(0-inf): read-out: Curve area (0-inf) AUC0-inf; for AUC(0-t): read-out: Curve area (0-t) AUC0-last; for half-life: read-out: Half-life T1/2 (converted); for bioavailability: oral, intragastric vs intravenous administration, read-out: Bioavailability F; for Cmax: read-out: Blood drug concentration Cmax; for Tmax: read-out: Peak time Tmax. From the text:
Experimental Embodiment 2: Pharmacokinetic Test of the Compounds of the Present Disclosure
Male SD rats were used as test animals, and LC-MS/MS method was used to determine the drug concentrations in plasma of rats at different time after intravenous and intragastric administration of compound 1A, compound 3A and compound 8A. To study the pharmacokinetic behavior of the compounds in rats and to evaluate their pharmacokinetic characteristics.
2.1 Test Drugs: Compound 1A, Compound 3A and Compound 8A
2.2 Test animals: 12 healthy adult male SD rats, divided into 6 groups with 2 rats in each group. The animal was purchased from Shanghai Sippr-BK laboratory animal Co. Ltd., and the animal production license number was SOCK (Shanghai) 2013-0016.
An appropriate amount of sample was weighed, and appropriate amounts of DMSO, polyethylene glycol-15 hydroxystearate and water were added in turn according to the volume ratio of 10:10:80, and the clarified state of 0.2 mg/mL was reached after stirring and sonication for intravenous administration.
An appropriate amount of sample was weighed and dissolved in 5% Tween 80+90% polyethylene glycol 400+5% polyvinylpyrrolidone K30 solution, and the clarified state of 0.5 mg/mL was reached after stirring and sonication for intragastric administration.
12 male SD rats were divided into 6 groups, and after fasting overnight, groups 1-3 were administered intravenously with a volume of 5 mL/kg; groups 4-6 were administered by gavage with a volume of 10 mL/kg.
After compound 1A, compound 3A and compound 8A were intravenously administered to SD rats, 40 μL of blood was collected at 0.0833, 0.25, 0.5, 1, 2, 4, 8 and 24 hours, respectively, and placed in a test tube containing 2 μL of EDTA-K2. After compound 1A and compound 3A were administered by gavage, 40 μL of blood was collected at 0.25, 0.5, 1, 2, 4, 8 and 24 hours, respectively, and placed in a test tube containing 2 μL of EDTA-K2. The tubes were centrifuged at 4000 rpm for 15 minutes to separate the plasma and stored at −60° C. Animals were allowed to eat 2 hours after administration.
The content of the test compounds in the plasma of rats after intravenous and intragastric administration was determined by LC-MS/MS method. The linear range of the method was 2.00-6000 nmol/L; plasma samples were analyzed after acetonitrile precipitation protein treatment.

A further data set has as its target T1, androgen receptor (AR) (Homo sapiens, UniProt P10275).
T1 sequence (P10275 1-920): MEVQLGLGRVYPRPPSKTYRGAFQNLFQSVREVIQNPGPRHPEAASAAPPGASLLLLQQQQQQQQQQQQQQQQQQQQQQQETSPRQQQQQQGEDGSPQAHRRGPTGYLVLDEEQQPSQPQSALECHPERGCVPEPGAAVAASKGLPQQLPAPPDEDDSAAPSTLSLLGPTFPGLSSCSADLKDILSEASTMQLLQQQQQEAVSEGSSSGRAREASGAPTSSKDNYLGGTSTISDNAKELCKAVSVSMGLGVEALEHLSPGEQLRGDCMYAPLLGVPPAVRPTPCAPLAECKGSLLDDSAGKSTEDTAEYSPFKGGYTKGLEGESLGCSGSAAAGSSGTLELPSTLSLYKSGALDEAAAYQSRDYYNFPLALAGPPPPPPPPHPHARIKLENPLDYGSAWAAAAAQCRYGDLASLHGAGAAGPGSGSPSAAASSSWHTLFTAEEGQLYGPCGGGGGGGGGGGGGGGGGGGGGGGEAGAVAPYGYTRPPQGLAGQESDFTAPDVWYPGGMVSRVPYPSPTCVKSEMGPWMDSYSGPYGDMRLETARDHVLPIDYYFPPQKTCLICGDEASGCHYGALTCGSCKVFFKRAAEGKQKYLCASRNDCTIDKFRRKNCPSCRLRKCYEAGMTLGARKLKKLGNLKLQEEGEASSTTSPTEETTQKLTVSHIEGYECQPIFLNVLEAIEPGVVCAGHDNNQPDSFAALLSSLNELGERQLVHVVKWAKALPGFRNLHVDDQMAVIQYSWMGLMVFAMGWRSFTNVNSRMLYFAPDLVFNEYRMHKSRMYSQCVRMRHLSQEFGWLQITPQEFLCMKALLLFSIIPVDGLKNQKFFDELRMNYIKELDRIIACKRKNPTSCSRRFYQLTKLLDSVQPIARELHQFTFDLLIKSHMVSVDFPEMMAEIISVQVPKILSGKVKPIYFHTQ
As to the kind of experiment: Agonistic effect of test compounds on androgen receptor (AR), LiveBLAzer FRET reporter cell assay. The format is cell-based. As to the method:
Experimental Embodiment 1: Agonistic Effect of Test Compounds on Androgen Receptor (AR)
1. Preparation of Compounds, Placing in Plates:
1.1 Preparation of compounds: the test compounds were diluted to the working concentration, and each compound was diluted by 4 times with Echo for 10 concentration gradients, and the compounds were added to a 384-well cell plate according to the microplate layout diagram, with 200 nL per well;
1.2 AR cell assay medium: 87% Opti-MEM (reduced serum medium), 10% Dialyzed FBS (dialyzed fetal bovine serum), 1% NEAA (non-essential amino acids), 1% sodium pyruvate and 1% penicillin-streptomycin;
1.3 culture medium, trypsin and Dulbecco's phosphate buffer were preheated in a 37° C. water bath;
1.4 the original medium in the cell culture flask was removed, and the cells were washed once with 6 mL of Dulbecco's phosphate buffer;
1.5 3.5 mL of trypsin was added to the cell culture flask, and the flask was gently shaken to make the trypsin fully contact with the cells, the trypsin was removed; after aspirating the trypsin, the culture flask was placed in a 37° C. incubator containing 5% CO2 for about 1 minute;
1.6 the cells were resuspended with 10 mL of cell detection medium, and about 0.8 mL of cell suspension was taken out for counting (ViCell XR)
1.7 the cell suspension was diluted with culture medium to 2.5×10^5 cells per mL;
1.8 40 !IL of cell suspension was added to each well of the cell plate, and 40 μL of cell culture medium was added to the other wells, and the cells were incubated in a 37° C. incubator containing 5% CO2 for 16 hours.
2. Reading the Board and Analyzing Data:
2.1 Preparation of solution A: 182 μL of DMSO was added to 200 μg of LiveBLAzer™-FRET B/G/g substrate (CCF4-AM). The solution A was packaged and stored in a refrigerator at −20° C.;
2.2 preparation of 6×substrate buffer: 15 μL of solution A was added to 150 μL of solution B, and the mixture was vortexed evenly, then 2335 μL of solution C was added to the above solution and vortexed evenly;
2.3 the cell culture plate was taken out, and 8μL of 6×substrate buffer was added to each well, shaken for 1 minute, and centrifuged at 1000 rpm for 10 seconds; after sealing the membrane, the cells were incubated at 23° C. for 2 hours, and the plate was read with Envision, and the curve EC50 value was fitted by Prism software.

[2] abbreviates: intravenous administration, dose 1.1 (1A), 0.69 (3A), 0.716 (8A) mg/kg.
The mark [3] stands for this setting: po, intragastric administration, dose 4.92 (1A), 4.2 (3A), 4.59 (8A) mg/kg.
Setting [4] is: AR cells, 16 hours incubation, 10 concentrations, read-out: EC50, agonist activity on androgen receptor.

Read-outs that look alike come from different tables or passages of the source.

The term clearance denotes the volume of plasma or blood freed of the substance per unit of time. As a reminder, the bioavailability is the share of a dose that reaches the circulation, judged against a reference dose that is usually intravenous. By Tmax is commonly meant the time from dosing to the highest level. In general, EC50 refers to the midpoint of the concentration-response curve. For the compound `N#Cc1ccc(N2CC3CC3C2C(O)C(F)(F)F)cc1C(F)(F)F` (single isomer, unassigned) [Compound 1A], in data set [1] (setting [2]), the Vd was 1.43 L/kg, the clearance amounted to 20.6 mL/min/kg, the AUC(0-inf) turned out to be 2.5 µM·h and the AUC(0-t) amounted to 2.47 µM·h. In addition, the half-life in data set [1] (setting [2]) is 1.37 h. Moreover, the bioavailability in data set [1] came to 11%. In data set [1] (setting [3]), the Cmax was 223 nM, the AUC(0-t) is 1.24 µM·h and the time to peak (Tmax) was 4 h. Also, the concentration giving a half-maximal response (EC50) at androgen receptor (AR) turned out to be 0.81 nM.

At androgen receptor (AR), `N#Cc1c(F)cc(N2CC3CC3C2C(O)C(F)(F)F)cc1Cl` (single isomer, unassigned) [Compound 5A] had an EC50 of 0.37 nM.

Compound `N#Cc1c(F)cc(N2CC3CC3C2C(O)C(F)(F)F)cc1C(F)(F)F` (single isomer, unassigned) [Compound 7A] yielded a 50% effective concentration (EC50) on androgen receptor (AR) of 0.53 nM.

Regarding `N#Cc1ncc(N2CC3CC3C2C(O)C(F)(F)F)cc1C(F)(F)F` (single isomer, unassigned) [Compound 8A], in data set [1] (setting [2]), the Vd was found to be 2.22 L/kg, the clearance came to 6.99 mL/min/kg, the AUC(0-inf) stood at 4.87 µM·h and the AUC(0-t) was found to be 4.78 µM·h. The half-life in data set [1] (setting [2]) was 4.18 h. In addition, the bioavailability in data set [1] is 41%. In addition, in data set [1] (setting [3]), the Cmax is 1660 nM, the AUC(0-inf) was 12.9 µM·h, the AUC(0-t) came to 12.7 µM·h and the half-life was 3.69 h. The Tmax in data set [1] (setting [3]) turned out to be 4 h. Further, the EC50 at androgen receptor (AR) (setting [4]) turned out to be 3.25 nM.

With `N#Cc1ncc(N2CC3CC3C2C(O)C(F)(F)F)cc1OC(F)F` (single isomer, unassigned) [Compound 9A], the EC50 at androgen receptor (AR) (setting [4]) turned out to be 47.8 nM.

For `N#Cc1ncc(N2CC3CC3C2C(O)C(F)(F)F)cc1Cl` (single isomer, unassigned) [Compound 10A], the concentration giving a half-maximal response (EC50) at androgen receptor (AR) (setting [4]) is 55.8 nM.

`COc1cc(N2CC3CC3C2C(O)C(F)(F)F)cnc1C#N` (single isomer, unassigned) [Compound 11A]: the EC50 on androgen receptor (AR) (setting [4]) amounted to 135 nM.

Compound `N#Cc1ccc(N2C[C@@H]3COC[C@@H]3[C@H]2C(O)C(F)(F)F)cc1C(F)(F)F` (single isomer, unassigned) [Compound 14A] showed an EC50 on androgen receptor (AR) of 0.39 nM.

At androgen receptor (AR), `N#Cc1ccc(N2CC3CC3C2C(O)C(F)(F)F)cc1C(F)F` (stereo not shown) [Mixture of compounds 2A and 2B] registered an EC50 of 8.8 nM.

For `N#Cc1cc(N2CC3CC3C2C(O)C(F)(F)F)cc(F)c1C#N` (stereo not shown) [Mixture of compounds 6A and 6B], at androgen receptor (AR) (setting [4]), the EC50 was determined as 4.3 nM.

Regarding `N#Cc1ncc(N2CC3C(C2C(O)C(F)(F)F)C3(F)F)cc1C(F)(F)F` (stereo not shown) [Mixture of compounds 12A and 12B], the half-maximal effective concentration (EC50) at androgen receptor (AR) (setting [4]) was found to be 6.33 nM.
